Key:
PDE1A = target: T1, PDE1A (Homo sapiens, UniProt P54750); test: IMAP phosphodiesterase assay, PDE1A; format: biochemical; conditions: PDE Target PDE1A
T1 construct: recombinant full length human PDEl A and PDE1B; made in house; host or cells: HEK or SF9 cells

PDE1B = target: T2, PDE1B (Homo sapiens, UniProt Q01064); test: IMAP phosphodiesterase assay, PDE1B; format: biochemical; conditions: PDE Target PDE1B
T2 construct: recombinant full length human PDEl A and PDE1B; made in house; host or cells: HEK or SF9 cells
Text: Measurement of PDEIB Inhibition In Vitro Using IMAP Phosphodiesterase Assay Kit
Phosphodiesterase I B (PDEIB) is a calcium/calmodulin dependent phosphodiesterase enzyme that converts cyclic guanosine monophosphate (cGMP) to 5′-guanosine monophosphate (5′-GMP). PDEIB can also convert a modified cGMP substrate, such as the fluorescent molecule cGMP-fluorescein, to the corresponding GMP-fluorescein. The generation of GMP-fluorescein from cGMP-fluorescein can be quantitated, using, for example, the IMAP (Molecular Devices, Sunnyvale, CA) immobilized-metal affinity particle reagent.
Briefly, the IMAP reagent binds with high affinity to the free 5′-phosphate that is found in GMP-fluorescein and not in cGMP-fluorescein. The resulting GMP-fluorescein-IMAP complex is large relative to cGMP-fluorescein. Small fluorophores that are bound up in a large, slowly tumbling, complex can be distinguished from unbound fluorophores, because the photons emitted as they fluoresce retain the same polarity as the photons used to excite the fluorescence.
In the phosphodiesterase assay, cGMP-fluorescein, which cannot be bound to IMAP, and therefore retains little fluorescence polarization, is converted to GMP-fluorescein, which, when bound to IMAP, yields a large increase in fluorescence polarization (Amp). Inhibition of phosphodiesterase, therefore, is detected as a decrease in Amp.
Materials: All chemicals are available from Sigma-Aldrich (St. Louis, MO) except for IMAP reagents (reaction buffer, binding buffer, FL-GMP and IMAP beads), which are available from Molecular Devices (Sunnyvale, CA). […]
The FL-GMP conversion reaction is initiated by combining 4 parts enzyme and inhibitor mix with 1 part substrate solution (0.225 μM) in a 384-well microtiter plate. […] The plate is incubated at room temperature for 1 hour to allow IMAP binding to proceed to completion, and then placed in an Envision multimode microplate reader (PerkinElmer, Shelton, CT) to measure the fluorescence polarization (Amp).
A decrease in GMP concentration, measured as decreased Amp, is indicative of inhibition of PDE activity.

PDE1C = PDE1C (Homo sapiens, UniProt Q14123); test: IMAP phosphodiesterase assay, PDE1C; format: biochemical; conditions: PDE Target PDE1C
hPDE2A = hPDE2A (Homo sapiens, UniProt O00408); test: PDE selectivity assay, hPDE2A; format: biochemical; conditions: PDE Target hPDE2A
hPDE3B = hPDE3B (Homo sapiens, UniProt Q13370); test: PDE selectivity assay, hPDE3B; format: biochemical; conditions: PDE Target hPDE3B
hPDE4A1A = hPDE4A1A (Homo sapiens, UniProt P27815); test: PDE selectivity assay, hPDE4A1A; format: biochemical; conditions: PDE Target hPDE4A1A
r-bovine PDE5 = r-bovine PDE5 (Bos taurus, UniProt Q28156); test: PDE selectivity assay, r-bovine PDE5; format: biochemical; conditions: PDE Target r-bovine PDE5
bovine PDE6 = target: T3, bovine PDE6 (Bos taurus, UniProt P11541+P23439); test: PDE selectivity assay, bovine PDE6; format: biochemical; conditions: PDE Target bovine PDE6
T3 sequence (P11541 2-856 limits assumed): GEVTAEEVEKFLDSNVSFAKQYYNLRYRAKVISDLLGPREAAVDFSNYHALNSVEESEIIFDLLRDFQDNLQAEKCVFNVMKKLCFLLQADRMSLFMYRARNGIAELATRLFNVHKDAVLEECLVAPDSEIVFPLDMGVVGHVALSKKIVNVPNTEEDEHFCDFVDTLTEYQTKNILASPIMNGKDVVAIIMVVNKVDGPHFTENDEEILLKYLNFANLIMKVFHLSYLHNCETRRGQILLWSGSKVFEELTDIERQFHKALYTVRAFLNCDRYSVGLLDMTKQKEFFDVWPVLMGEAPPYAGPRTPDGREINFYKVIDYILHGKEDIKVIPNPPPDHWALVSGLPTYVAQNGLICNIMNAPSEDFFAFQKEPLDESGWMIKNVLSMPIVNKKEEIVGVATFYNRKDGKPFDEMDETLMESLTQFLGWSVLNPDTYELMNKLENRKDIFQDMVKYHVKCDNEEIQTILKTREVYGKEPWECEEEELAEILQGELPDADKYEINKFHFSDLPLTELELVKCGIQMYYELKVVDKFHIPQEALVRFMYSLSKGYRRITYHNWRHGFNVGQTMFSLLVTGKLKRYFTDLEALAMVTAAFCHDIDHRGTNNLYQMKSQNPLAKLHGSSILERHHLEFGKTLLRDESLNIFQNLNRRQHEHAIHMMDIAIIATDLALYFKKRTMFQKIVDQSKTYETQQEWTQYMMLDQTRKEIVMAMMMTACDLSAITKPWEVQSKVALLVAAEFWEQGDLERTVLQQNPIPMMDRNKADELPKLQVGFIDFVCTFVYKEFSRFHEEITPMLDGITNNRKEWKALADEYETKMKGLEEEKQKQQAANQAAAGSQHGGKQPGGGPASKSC
T3 sequence (P23439 2-850 limits assumed): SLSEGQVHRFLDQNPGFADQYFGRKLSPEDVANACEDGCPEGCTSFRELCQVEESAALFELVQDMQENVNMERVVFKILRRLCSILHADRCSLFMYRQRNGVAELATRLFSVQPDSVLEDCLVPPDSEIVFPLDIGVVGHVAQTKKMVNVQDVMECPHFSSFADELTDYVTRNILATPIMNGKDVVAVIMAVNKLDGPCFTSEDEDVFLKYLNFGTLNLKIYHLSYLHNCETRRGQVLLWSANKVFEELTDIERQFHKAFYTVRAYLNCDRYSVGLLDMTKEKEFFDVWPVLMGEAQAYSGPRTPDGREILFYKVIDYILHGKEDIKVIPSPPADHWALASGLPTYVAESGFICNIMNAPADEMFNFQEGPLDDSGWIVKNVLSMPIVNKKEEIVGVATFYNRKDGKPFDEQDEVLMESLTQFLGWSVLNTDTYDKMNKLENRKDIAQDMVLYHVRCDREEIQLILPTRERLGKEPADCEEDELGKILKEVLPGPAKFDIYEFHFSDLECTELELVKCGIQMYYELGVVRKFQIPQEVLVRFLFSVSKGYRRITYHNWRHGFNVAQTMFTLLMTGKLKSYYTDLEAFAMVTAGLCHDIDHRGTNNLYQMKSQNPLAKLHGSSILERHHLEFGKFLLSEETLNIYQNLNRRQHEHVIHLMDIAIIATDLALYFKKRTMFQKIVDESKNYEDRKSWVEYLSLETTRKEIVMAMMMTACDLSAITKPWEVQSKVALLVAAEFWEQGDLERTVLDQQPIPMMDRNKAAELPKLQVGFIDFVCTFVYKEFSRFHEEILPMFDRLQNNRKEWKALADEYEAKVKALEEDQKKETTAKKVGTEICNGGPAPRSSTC

hPDE7B = hPDE7B (Homo sapiens, UniProt Q9NP56); test: PDE selectivity assay, hPDE7B; format: biochemical; conditions: PDE Target hPDE7B
hPDE8A = hPDE8A (Homo sapiens, UniProt O60658); test: PDE selectivity assay, hPDE8A; format: biochemical; conditions: PDE Target hPDE8A
hPDE9A = hPDE9A (Homo sapiens, UniProt O76083); test: PDE selectivity assay, hPDE9A; format: biochemical; conditions: PDE Target hPDE9A
hPDE10A = hPDE10A (Homo sapiens, UniProt Q9Y233); test: PDE selectivity assay, hPDE10A; format: biochemical; conditions: PDE Target hPDE10A
hPDE11 = hPDE11 (Homo sapiens, UniProt Q9HCR9); test: PDE selectivity assay, hPDE11; format: biochemical; conditions: PDE Target hPDE11
[1] = Circulating metabolites in human plasma after oral administration of Compound 1; format: in vivo; conditions: after oral administration of Compound 1 (parent)

Chain of hPDE7B (Q9NP56 whole entry): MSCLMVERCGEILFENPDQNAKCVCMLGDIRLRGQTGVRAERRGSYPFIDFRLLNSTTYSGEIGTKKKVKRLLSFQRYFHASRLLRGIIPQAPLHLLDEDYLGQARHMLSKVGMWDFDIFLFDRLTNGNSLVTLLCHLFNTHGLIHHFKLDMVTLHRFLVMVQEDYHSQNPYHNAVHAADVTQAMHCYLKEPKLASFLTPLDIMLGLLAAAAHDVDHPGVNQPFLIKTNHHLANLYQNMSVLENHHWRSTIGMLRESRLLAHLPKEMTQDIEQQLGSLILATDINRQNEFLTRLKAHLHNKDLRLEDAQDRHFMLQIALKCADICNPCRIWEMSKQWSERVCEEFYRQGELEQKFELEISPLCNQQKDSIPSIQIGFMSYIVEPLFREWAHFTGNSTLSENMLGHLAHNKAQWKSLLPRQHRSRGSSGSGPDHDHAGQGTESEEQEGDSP
Chain of hPDE11 (Q9HCR9 whole entry): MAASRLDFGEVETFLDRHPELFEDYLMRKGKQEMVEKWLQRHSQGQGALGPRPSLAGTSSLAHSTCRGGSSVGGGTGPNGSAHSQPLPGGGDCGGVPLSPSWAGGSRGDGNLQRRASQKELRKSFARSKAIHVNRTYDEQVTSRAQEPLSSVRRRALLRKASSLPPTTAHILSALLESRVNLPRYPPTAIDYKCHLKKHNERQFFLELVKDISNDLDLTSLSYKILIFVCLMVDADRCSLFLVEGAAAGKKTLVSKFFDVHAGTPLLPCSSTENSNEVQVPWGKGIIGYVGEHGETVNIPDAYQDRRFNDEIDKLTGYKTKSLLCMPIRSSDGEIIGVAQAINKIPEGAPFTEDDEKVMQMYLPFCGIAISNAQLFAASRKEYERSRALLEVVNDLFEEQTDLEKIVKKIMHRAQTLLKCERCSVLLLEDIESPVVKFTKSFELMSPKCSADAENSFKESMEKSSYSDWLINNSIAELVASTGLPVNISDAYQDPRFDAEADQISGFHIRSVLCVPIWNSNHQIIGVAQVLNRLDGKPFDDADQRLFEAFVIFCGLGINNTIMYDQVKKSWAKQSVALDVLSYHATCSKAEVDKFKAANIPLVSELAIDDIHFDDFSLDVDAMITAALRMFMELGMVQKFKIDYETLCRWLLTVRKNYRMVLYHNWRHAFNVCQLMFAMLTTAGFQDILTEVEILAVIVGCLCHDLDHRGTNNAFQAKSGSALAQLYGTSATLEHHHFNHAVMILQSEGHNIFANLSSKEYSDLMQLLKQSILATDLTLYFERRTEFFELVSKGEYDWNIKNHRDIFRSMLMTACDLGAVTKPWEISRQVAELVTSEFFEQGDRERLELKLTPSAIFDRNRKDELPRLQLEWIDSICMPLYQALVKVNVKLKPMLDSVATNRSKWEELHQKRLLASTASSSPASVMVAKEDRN
Chain of hPDE2A (O00408 whole entry): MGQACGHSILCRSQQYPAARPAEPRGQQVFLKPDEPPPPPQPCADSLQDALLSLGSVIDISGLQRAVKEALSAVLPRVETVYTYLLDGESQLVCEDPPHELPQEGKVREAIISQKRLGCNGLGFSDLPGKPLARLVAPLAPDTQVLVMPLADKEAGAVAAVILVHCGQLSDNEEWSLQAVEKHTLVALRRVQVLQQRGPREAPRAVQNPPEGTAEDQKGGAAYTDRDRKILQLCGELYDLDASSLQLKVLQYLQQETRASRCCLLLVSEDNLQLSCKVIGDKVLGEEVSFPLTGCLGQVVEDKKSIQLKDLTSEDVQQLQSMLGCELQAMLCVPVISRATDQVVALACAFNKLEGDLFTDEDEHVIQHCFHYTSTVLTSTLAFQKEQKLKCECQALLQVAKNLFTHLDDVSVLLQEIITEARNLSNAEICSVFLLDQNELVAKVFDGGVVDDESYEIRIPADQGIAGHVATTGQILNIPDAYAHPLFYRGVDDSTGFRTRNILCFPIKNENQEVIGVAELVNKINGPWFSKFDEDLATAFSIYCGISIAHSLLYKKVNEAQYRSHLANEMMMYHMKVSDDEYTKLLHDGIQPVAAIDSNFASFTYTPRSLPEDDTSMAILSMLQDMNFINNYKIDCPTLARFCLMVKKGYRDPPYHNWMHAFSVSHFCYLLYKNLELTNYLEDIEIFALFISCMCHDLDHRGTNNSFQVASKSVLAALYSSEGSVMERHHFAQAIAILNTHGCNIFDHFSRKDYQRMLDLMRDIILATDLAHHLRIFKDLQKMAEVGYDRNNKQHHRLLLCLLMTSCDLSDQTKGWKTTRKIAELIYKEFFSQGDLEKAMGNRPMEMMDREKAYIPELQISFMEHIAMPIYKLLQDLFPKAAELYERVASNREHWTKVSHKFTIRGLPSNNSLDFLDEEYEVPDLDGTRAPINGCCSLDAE
Chain of hPDE10A (Q9Y233 whole entry): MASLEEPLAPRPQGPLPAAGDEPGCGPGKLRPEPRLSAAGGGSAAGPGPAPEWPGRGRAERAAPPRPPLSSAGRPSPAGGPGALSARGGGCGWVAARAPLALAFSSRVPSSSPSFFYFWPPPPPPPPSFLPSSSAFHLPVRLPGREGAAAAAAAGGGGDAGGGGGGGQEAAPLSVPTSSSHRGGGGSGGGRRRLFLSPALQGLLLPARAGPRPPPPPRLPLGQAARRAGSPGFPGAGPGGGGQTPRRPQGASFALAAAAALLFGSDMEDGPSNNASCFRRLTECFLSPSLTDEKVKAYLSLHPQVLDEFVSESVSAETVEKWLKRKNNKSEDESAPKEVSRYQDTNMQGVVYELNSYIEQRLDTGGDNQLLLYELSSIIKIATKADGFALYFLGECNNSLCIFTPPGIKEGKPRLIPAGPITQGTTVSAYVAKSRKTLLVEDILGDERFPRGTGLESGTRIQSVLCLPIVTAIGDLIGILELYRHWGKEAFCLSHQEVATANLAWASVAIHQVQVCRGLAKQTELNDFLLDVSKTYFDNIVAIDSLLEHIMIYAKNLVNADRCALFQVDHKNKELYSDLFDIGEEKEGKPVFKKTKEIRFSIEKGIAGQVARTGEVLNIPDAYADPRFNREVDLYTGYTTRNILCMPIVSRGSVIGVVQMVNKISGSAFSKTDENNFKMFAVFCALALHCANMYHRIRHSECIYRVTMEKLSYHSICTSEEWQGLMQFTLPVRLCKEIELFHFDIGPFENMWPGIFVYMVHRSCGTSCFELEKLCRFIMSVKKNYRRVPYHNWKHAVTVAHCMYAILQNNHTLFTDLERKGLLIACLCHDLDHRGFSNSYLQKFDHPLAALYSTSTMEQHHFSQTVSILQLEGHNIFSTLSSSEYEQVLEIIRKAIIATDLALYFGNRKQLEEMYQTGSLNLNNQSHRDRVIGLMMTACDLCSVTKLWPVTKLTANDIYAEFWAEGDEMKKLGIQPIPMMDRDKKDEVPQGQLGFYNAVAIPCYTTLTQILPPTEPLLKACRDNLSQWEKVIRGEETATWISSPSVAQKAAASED
Chain of hPDE8A (O60658 whole entry): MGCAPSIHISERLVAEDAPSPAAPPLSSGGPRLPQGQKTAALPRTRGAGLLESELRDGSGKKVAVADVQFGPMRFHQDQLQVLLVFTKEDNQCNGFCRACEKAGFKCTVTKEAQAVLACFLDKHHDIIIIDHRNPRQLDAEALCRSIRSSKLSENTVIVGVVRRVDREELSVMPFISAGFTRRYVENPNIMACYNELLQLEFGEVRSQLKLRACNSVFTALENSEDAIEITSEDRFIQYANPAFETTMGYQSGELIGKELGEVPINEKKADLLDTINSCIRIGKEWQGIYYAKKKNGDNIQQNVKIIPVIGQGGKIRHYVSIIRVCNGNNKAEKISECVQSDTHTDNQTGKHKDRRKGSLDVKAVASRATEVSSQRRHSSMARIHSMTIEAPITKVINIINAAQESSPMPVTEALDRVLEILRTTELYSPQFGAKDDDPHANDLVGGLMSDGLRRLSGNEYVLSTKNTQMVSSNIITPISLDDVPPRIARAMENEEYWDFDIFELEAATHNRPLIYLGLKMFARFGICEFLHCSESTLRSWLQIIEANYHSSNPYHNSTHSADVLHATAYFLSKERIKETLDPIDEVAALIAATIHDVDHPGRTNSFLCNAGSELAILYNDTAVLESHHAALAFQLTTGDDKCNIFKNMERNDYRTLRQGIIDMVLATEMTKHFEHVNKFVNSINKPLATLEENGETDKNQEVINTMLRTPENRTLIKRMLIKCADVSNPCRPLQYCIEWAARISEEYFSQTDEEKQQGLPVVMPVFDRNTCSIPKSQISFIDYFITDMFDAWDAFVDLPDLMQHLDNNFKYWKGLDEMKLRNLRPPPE
Chain of hPDE9A (O76083 whole entry): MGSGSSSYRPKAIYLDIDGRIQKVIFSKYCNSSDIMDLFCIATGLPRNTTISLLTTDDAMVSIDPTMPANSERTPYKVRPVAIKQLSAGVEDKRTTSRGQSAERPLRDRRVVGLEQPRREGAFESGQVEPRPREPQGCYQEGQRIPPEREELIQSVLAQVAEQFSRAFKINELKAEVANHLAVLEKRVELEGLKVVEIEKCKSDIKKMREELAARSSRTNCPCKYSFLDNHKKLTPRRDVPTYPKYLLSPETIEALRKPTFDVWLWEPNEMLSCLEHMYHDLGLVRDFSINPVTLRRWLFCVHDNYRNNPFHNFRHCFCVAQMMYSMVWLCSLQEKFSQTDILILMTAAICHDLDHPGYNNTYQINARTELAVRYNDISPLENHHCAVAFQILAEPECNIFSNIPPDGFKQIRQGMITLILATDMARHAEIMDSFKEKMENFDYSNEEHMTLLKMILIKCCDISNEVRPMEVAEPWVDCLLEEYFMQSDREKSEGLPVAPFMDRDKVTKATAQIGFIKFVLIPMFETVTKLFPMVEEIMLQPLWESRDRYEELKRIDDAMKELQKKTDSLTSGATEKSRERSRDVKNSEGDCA

Which IC50 (PDE1A) does the source give for `CN1C(=O)c2c(nn(Cc3ccc(-c4cccc(F)n4)cc3)c2Nc2ccc(O)cc2)N2C1=N[C@@H]1CCC[C@@H]12` [Compound 1] here?
Its IC50 is 1.3 nM.

What about the IC50 (PDE1B) of the same molecule?
The IC50 was 29 nM.

What about the IC50 (PDE1C) of the same molecule?
The IC50 was 1.3 nM.

And the IC50 (hPDE2A)?
Its IC50 is > 100000 nM.

What about the IC50 (hPDE3B) of the same molecule?
Its IC50 is 49700 nM.

And the IC50 (hPDE4A1A)?
The IC50 was 3660 nM.

What about the IC50 (r-bovine PDE5) of the same molecule?
Its IC50 is 2480 nM.

And the IC50 (bovine PDE6)?
The IC50 was 4340 nM.

And the IC50 (hPDE7B)?
Its IC50 is 6610 nM.

What about the IC50 (hPDE8A) of the same molecule?
Its IC50 is 4170 nM.

And the IC50 (hPDE9A)?
The IC50 was > 100000 nM.

And the IC50 (hPDE10A)?
Its IC50 is > 100000 nM.

And the IC50 (hPDE11)?
Its IC50 is 5440 nM.

Which “share of the total circulating drug related materials in human plasma” value [1] does the source give for `CN1C(=O)c2c(nn(Cc3ccc(-c4cccc(F)n4)cc3)c2Nc2ccccc2)N2C1=N[C@]1(O)CCC[C@H]21` [M-I] here?
Its value is 84%.

With `CN1C(=O)c2c(nn(Cc3ccc(-c4cccc(F)n4)cc3)c2Nc2ccccc2)N2C1=N[C@]1(O)CCC[C@H]21` [Compound 2] as the molecule, how does the IC50 (PDE1A) read?
The IC50 was 0.042 nM.

And the IC50 (PDE1B)?
The IC50 was 0.015 nM.

What about the IC50 (PDE1C) of the same molecule?
Its IC50 is 0.042 nM.

What about the IC50 (hPDE2A) of the same molecule?
The IC50 was ~10000 nM.

What about the IC50 (hPDE3B) of the same molecule?
Its IC50 is ~10000 nM.

And the IC50 (hPDE4A1A)?
Its IC50 is 22 nM.

What about the IC50 (r-bovine PDE5) of the same molecule?
Its IC50 is 3.1 nM.

And the IC50 (bovine PDE6)?
The IC50 was 34 nM.

What about the IC50 (hPDE7B) of the same molecule?
The IC50 was 118 nM.

What about the IC50 (hPDE8A) of the same molecule?
The IC50 was 418 nM.

What about the IC50 (hPDE9A) of the same molecule?
Its IC50 is > 10000 nM.

And the IC50 (hPDE10A)?
Its IC50 is > 10000 nM.

What about the IC50 (hPDE11) of the same molecule?
Its IC50 is 454 nM.

Which results are given for `CN1C(=O)c2c(nn(Cc3ccc(-c4cccc(F)n4)cc3)c2Nc2ccc(O)cc2)N2C1=N[C@]1(O)CCC[C@H]21` [Compound 3]?
IC50 (PDE1A): 6.3 nM; IC50 (PDE1B): 1.4 nM; IC50 (PDE1C): 5.4 nM; IC50 (hPDE2A): 73400 nM; IC50 (hPDE3B): 20900 nM; IC50 (hPDE4A1A): 840 nM; IC50 (r-bovine PDE5): 156 nM; IC50 (bovine PDE6): 294 nM; IC50 (hPDE7B): 1240 nM; IC50 (hPDE8A): 3420 nM; IC50 (hPDE9A): > 100000 nM; IC50 (hPDE10A): 67400 nM; IC50 (hPDE11): 396 nM
